The values that follow are results of earlier work, collected in paper PMC8687831, “α-Amylase Inhibitory Activity of Catunaregam spinosa (Thunb.) Tirveng.: In Vitro and In Silico Studies” (BioMed Research International, 2021).

The data set deals with streptozotocin-induced diabetic rats. On the set-up: method as in PMID 21143769.

Take `CC[C@H](CC[C@@H](C)[C@H]1CC[C@H]2[C@@H]3CC=C4C[C@@H](O)CC[C@]4(C)[C@H]3CC[C@]12C)C(C)C` [β-Sitosterol, β-sitosterol]: the “effective to lower the blood glucose level” value was 78-100%.
